Measurements published in US9376382B2, “N-substituted isopropyldimethyl azulene sulfonamide derivatives, and preparation method and use thereof” (Sichuan Guokang Pharmaceutical Co., Ltd., priority 2011, dated 2016).
“Also recorded” adds a separate entry of the source.

Legend:
[1] = High-temperature test (60° C.), stability study; type: physicochemical; details: open-stored; for Appearance Day 5: Day 5, cell wraps; for Appearance Day 5 / Appearance Day 10: first line given; for Appearance Day 10: Day 10, cell wraps;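 on all read-outs here: samples kept uncovered in dishes at 60 °C for up to 10 days and examined on Day 5 and Day 10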
Experimental: (§1) The test samples were open-stored in culture dishes at 60° C. for 10 days, and taken and detected on Day 5 and Day 10. • The characteristics, especially colour change were observed. • Melting points were measured by automatic melting point apparatus. • By self-reflection, TLC is used to observe whether the spot numbers were increased after 5 days and 10 days.

[2] = High humidity test (25° C., relative humidity 90% ± 5%), stability study; type: physicochemical; details: RH 90% ± 5%; for Appearance Day 0: Day 0, cell wraps; for Appearance Day 0 / Appearance Day 5 / Appearance Day 10: first line given; for Appearance Day 5: Day 5, cell wraps; for Appearance Day 10: Day 10, cell wraps;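 on all read-outs here: samples kept uncovered in sealed humidity desiccators, appearance judged mainly by colour change, melting point on an automatic apparatus, TLC checked for extra spots versus start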
Experimental: (§2) The test samples were open-stored in closed constant humidity desiccators under the condition of 25° C. and relative humidity of 90%+5% for 10 days, and taken and detected on Day 5 and Day 10. Meanwhile, each sample was accurately weighed before and after test.
The characteristics, especially colour change was observed.
Melting points were measured by an automatic melting point apparatus.
By self-reflection, TLC is used to observe whether the spot numbers were increased after 5 days and 10 days.

[3] = Intense light irradiation test (4500LX ± 500LX), stability study; type: physicochemical; details: for Appearance Day 0: Day 0, cell wraps; for Appearance Day 0 / Appearance Day 5 / Appearance Day 10: first line given; for Appearance Day 5: Day 5, cell wraps; for Appearance Day 10: Day 10, cell wraps
Experimental: (§3) The test samples were open-stored in “adjustable light boxes” under the conditions of illumination of 4500LX±500LX for 10 days, and taken and detected on Day 5 and Day 10 with regards to dry items. • The characteristics, especially colour change was observed. • Melting points were measured by an automatic melting point apparatus. • By self-reflection, TLC is used to observe whether the spot numbers were increased after 5 days and 10 days.

[4] = test system: ethanol-induced gastric ulcer; test: Anhydrous ethanol-induced gastric ulcer in mice; type: in vivo, Kunming mice; set-up: key to Gastri ulcer score (X ± SD) / Ulcer score (X ± SD) / Gastric ulcer score (X ± SD): summed pathology score: congestion 1, hemorrhage/erosion 1, linear erosion 3
Experimental: Kunming mice, half male and half female, weighing 18-22 g, provided by the West China Animal Center
(1) Azulene sodium sulphonate was added with 0.5% CMC to prepare a suspension with concentration of 0.15 mg/ml.
(2) 20 mg of Omeprazole was added with 0.5% CMC to prepare a suspension with concentration of 0.67 mg/ml.
Kunming mice were randomly grouped according the body weight (one model control group or negative control group, one Omeprazole control group or positive control group, one Azulene sodium sulphonate control group, twelve test drug groups), eight mice for each group, half male and half female.
Administration: Model control group was administrated intragastrically with 0.5% CMC solution at a dose of 0.4 ml/20 g; Omeprazole control group was administrated intragastrically with Omeprazole at a dose of 0.4 ml/20 g, Azulene sodium sulphonate control group and each test drug groups were administrated intragastrically with their respective drug at a dose of 0.4 ml/20 g. The mice in each group were administrated once a day for successive five days. 0.5 hour after final administration, the mice in each group were administrated intragastrically with 0.5 ml of anhydrous ethanol, one hour later the mice were executed and dissected, and their stomaches were taken, washed and scored according to the pathological degree. For local congestion and rubefaction, score was 1; for petechial hemorrhage or erosion, score was respectively 1, for each linear erosion, score was 3. Statistical analysis was performed. Ulcer scores were calculated, significant differences between the groups were compared and the inhibition rates of ulcer were calculated [Inhibition rate of ulcer=(ulcer score of model group−ulcer score of drug administration group)/ulcer score of model group].

[5] = Stability studies (light, humidity, heat), overall comparison; details: summary of high-temperature, high humidity and intense light tests
Experimental: as §1, §2, §3

[6] = Table 5 data, relative increase

| SMILES | Melting point Day 0 [1] | Spot numbers on TLC Day 0 [1] | Melting point Day 5 [1] | Spot numbers on TLC Day 5 [1] | Appearance Day 5 [1] | Melting point Day 10 [1] | Spot numbers on TLC Day 10 [1] | Appearance Day 10 [1] | Melting point Day 0 [2] | Spot numbers on TLC Day 0 [2] | hygroscopic rate (%) Day 0 [2] | Appearance Day 0 [2] | Melting point Day 5 [2] | Spot numbers on TLC Day 5 [2] | hygroscopic rate (%) Day 5 [2] | Appearance Day 5 [2] | Melting point Day 10 [2] | Spot numbers on TLC Day 10 [2] | Appearance Day 10 [2] | Melting point Day 0 [3] | other results |
| --- | --- | --- | --- | --- | --- | --- | --- | --- | --- | --- | --- | --- | --- | --- | --- | --- | --- | --- | --- | --- | --- |
| Cc1cc(S(=O)(=O)Nc2ccc(N)cc2)c2c(C)ccc(C(C)C)cc1-2 [4l, N-(4-aminophenyl)-3,8-dimethyl-5-isopropyl-1-azulene sulfonamide] | 87.5-89.0 °C | 1 | 88.0-89.0 °C | 1 | purple | 88.0-89.0 °C | 1 | purple | 87.5-89.0 °C | 1 | 1.09% | purple | 87.5-89.5 °C | 1 | 1.81% | purple | 87.5-89.5 °C | 1 | purple | 87.5-89.0 °C | Spot numbers on TLC Day 0 [3]: 1; Appearance Day 0 [3]: purple; Melting point Day 5 [3]: 87.5-89.0 °C; Spot numbers on TLC Day 5 [3]: 1; Appearance Day 5 [3]: purple; Melting point Day 10 [3]: 87.5-89.5 °C; Spot numbers on TLC Day 10 [3]: 1; Appearance Day 10 [3]: purple; Inhibition rate (%) ([4]; Table 5, inhibition rate of ulcer vs model group): 45.20%; Ulcer score (X ± SD) ([4]; Table 5, mice, intragastric once a day for five days, equimolar doses, model group 20.33 ± 12.23): 11.14 ± 6.41; increase of inhibition rate compared to Omeprazole [4, 6]: 23%; increase of inhibition rate compared to azulene sulfonate sodium [4, 6]: 38%; anti-gastric ulcer effect in words ([4]; ethanol-induced gastric ulcer in mice, compared to the model group): significantly relieve the pathological degree; also recorded: better therapeutic effect on gastric ulcer than azulene sulfonate sodium and omeprazole; melting point: 88 to 90 °C; light, humidity and heat stability in words [5]: better light, humidity and heat stability than azulene sulfonate sodium |
| CCNS(=O)(=O)c1cc(C)c2cc(C(C)C)ccc(C)c1-2 [4h, N-ethyl-3,8-dimethyl-5-isopropyl-1-azulene sulfonamide] | 123.5-125.5 °C | 1 | 123.5-125.5 °C | 1 | blue | 124.5-125.0 °C | 1 | blue | 123.5-125.5 °C | 1 | 1.14% | blue | 123.5-125.5 °C | 1 | 2.11% | blue | 123.5-125.5 °C | 1 | blue | 123.5-125.5 °C | Spot numbers on TLC Day 0 [3]: 1; Appearance Day 0 [3]: blue; Melting point Day 5 [3]: 122.0-125.5 °C; Spot numbers on TLC Day 5 [3]: 1; Appearance Day 5 [3]: blue; Melting point Day 10 [3]: 121.0-126.0 °C; Spot numbers on TLC Day 10 [3]: 2; Appearance Day 10 [3]: blue; melting point: 96 to 98 °C; light, humidity and heat stability in words [5]: better light, humidity and heat stability than azulene sulfonate sodium |
| Cc1cc(S(=O)(=O)NCC(C)C)c2c(C)ccc(C(C)C)cc1-2 [4e, N-isobutyl-3,8-dimethyl-5-isopropyl-1-azulene sulfonamide] | 117.0-118.0 °C | 1 | 117.5-118.5 °C | 1 | purple | 117.5-118.5 °C | 1 | purple | 117.0-118.0 °C | 1 | 1.07% | purple | 116.5-118.5 °C | 1 | 1.51% | purple | 116.5-118.5 °C | 1 | purple | 117.0-118.0 °C | Spot numbers on TLC Day 0 [3]: 1; Appearance Day 0 [3]: purple; Melting point Day 5 [3]: 117.5-118.0 °C; Spot numbers on TLC Day 5 [3]: 1; Appearance Day 5 [3]: purple; Melting point Day 10 [3]: 115.0-117.5 °C; Spot numbers on TLC Day 10 [3]: 2; Appearance Day 10 [3]: purple; melting point: 117 to 118 °C; light, humidity and heat stability in words [5]: better light, humidity and heat stability than azulene sulfonate sodium |
| Cc1cc(S(=O)(=O)NCc2ccccc2)c2c(C)ccc(C(C)C)cc1-2 [4j, N-benzyl-3,8-dimethyl-5-isopropyl-1-azulene sulfonamide] | 124.0-125.5 °C | 1 | 124.0-125.5 °C | 1 | dark blue | 124.0-125.5 °C | 1 | blue | 124.0-126.0 °C | 1 | 1.24% | dark | 124.0-126.5 °C | 1 | 2.08% | dark | 124.5-126.5 °C | 1 | blue | 124.0-125.5 °C | Spot numbers on TLC Day 0 [3]: 1; Appearance Day 0 [3]: dark blue; Melting point Day 5 [3]: 123.5-125.5 °C; Spot numbers on TLC Day 5 [3]: 1; Appearance Day 5 [3]: dark; Spot numbers on TLC Day 10 [3]: 2; Appearance Day 10 [3]: blue; melting point: 124 to 126 °C; light, humidity and heat stability in words [5]: better light, humidity and heat stability than azulene sulfonate sodium |
| CCCNS(=O)(=O)c1cc(C)c2cc(C(C)C)ccc(C)c1-2 [4f, N-propyl-3,8-dimethyl-5-isopropyl-1-azulene sulfonamide] | 59.5-62.5 °C | 1 | 60.0-62.0 °C | 1 | purple | 60.0-62.0 °C | 1 | purple | 59.5-62.5 °C | 1 | 1.13% | purple | 59.5-63.0 °C | 1 | 1.28% | purple | 59.5-63.0 °C | 1 | purple | 59.5-62.5 °C | Spot numbers on TLC Day 0 [3]: 1; Appearance Day 0 [3]: purple; Melting point Day 5 [3]: 58.5-62.0 °C; Spot numbers on TLC Day 5 [3]: 1; Appearance Day 5 [3]: purple; Melting point Day 10 [3]: 57.5-61.5 °C; Spot numbers on TLC Day 10 [3]: 2; Appearance Day 10 [3]: purple; melting point: 60 to 62 °C; light, humidity and heat stability in words [5]: better light, humidity and heat stability than azulene sulfonate sodium |
| Cc1cc(S(=O)(=O)Nc2ccc(Cl)cc2)c2c(C)ccc(C(C)C)cc1-2 [4k, N-(4-chlorophenyl)-3,8-dimethyl-5-isopropyl-1-azulene sulfonamide] | 134.5-135.0 °C | 1 | 134.0-135.5 °C | 1 | purple | 134.0-135.5 °C | 1 | purple | 134.5-135.0 °C | 1 | 1.17% | purple | 134.5-135.5 °C | 1 | 1.87% | purple | 134.5-135.5 °C | 1 | purple | 134.5-135.0 °C | Spot numbers on TLC Day 0 [3]: 1; Appearance Day 0 [3]: purple; Melting point Day 5 [3]: 134.0-135.5 °C; Spot numbers on TLC Day 5 [3]: 1; Appearance Day 5 [3]: purple; Melting point Day 10 [3]: 134.0-135.5 °C; Spot numbers on TLC Day 10 [3]: 1; Appearance Day 10 [3]: purple; melting point: 134 to 135 °C; light, humidity and heat stability in words [5]: better light, humidity and heat stability than azulene sulfonate sodium |
